Measurements taken from US20100063080A1, “CXCR2 inhibitors” (priority 2006, published 2010).

Target: T1, human CXCR2 receptor (Homo sapiens, UniProt P25025)
T1 construct: purchased Biosignal Packard Inc; host or cells: CHO-K1 membranes
T1 sequence (P25025 1-360): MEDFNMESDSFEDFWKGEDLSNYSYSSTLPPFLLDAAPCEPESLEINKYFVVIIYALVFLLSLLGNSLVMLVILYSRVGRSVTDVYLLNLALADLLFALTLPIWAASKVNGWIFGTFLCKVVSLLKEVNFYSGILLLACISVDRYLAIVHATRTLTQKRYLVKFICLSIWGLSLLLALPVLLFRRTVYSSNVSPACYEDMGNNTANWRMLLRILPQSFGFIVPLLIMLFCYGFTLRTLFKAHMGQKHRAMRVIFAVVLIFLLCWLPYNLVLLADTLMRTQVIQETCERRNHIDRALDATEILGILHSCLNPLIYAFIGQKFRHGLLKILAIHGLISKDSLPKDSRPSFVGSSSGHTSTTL
Assay: [35S]-GTPγS binding assay for human CXCR2 receptor using SPA technology
Type: biochemical
Settings: CHO-K1 membranes expressing human CXCR2; 100 nM IL-8; read-out: IC50 in the [35S]-GPTγS binding assay
Excerpt: [^35S]-GTPγS Binding Assay for Human CXCR2 Receptor using SPA Technology
[^35S]-GTPγS (with specific activity 1082 Ci/mmol) and wheat germ agglutinin poly vinyl toluene scintillation proximity beads are purchased from Amersham Pharmacia Biotech. The Chinese hamster ovary cell (CHO-K1) membranes expressing human CXCR2 receptors are purchased from Biosignal Packard Inc. All other chemicals are of analytical grade. White non-binding surface 96 well Optiplate™ microplates are obtained from Packard. Recombinant human IL-8 is synthesised, cloned and expressed in Escherichia coli as described previously (Lindley I, et al., Proc. Natl. Acad. Sci., 1988, 85(23):9199). The assay is performed in duplicate in 96 well Optiplate™ microplate in a final volume of 250 μl per well. Compounds are diluted in DMSO (0.5% final concentration) and incubated in 20 mM HEPES buffer pH 7.4 containing 10 mM MgCl2, 100 mM NaCl, 1 mM EDTA plus 100 nM IL-8, 50 μM GDP and […] [^35S]GTPγS per well. SPA beads (1 mg/well final concentration) were pre-mixed with the membranes (10 μg/well final concentration) in assay buffer: 20 mM HEPES buffer pH 7.4 containing 10 mM MgCl2, 100 mM NaCl, 1 mM EDTA. […] The plate is centrifuged and read on Packard TopCount™ scintillation counter, program [^35S dpm] for 1 min/well. Data are expressed as the % response to 100 nM IL-8 minus basal.

| IC50 [nM] | SMILES |
| --- | --- |
| 230 | CCC1CCCN1C(=O)C1CC1c1nc(SCc2cccc(F)c2F)nc(O)c1C#N (centres unmarked) [Example 43, 2-(2,3-Difluoro-benzylsulfanyl)-4-[2-(2-ethyl-pyrrolidine-1carbonyl)-cyclopropyl]-6-hydroxypyrimidine-5-carbonitrile] |
| 820 | CCOC(=O)CNC(=O)[C@@H]1C[C@H]1c1nc(SCc2cccc(F)c2F)nc(O)c1C#N (relative stereo) [Example 49, Trans-({2-[5-Cyano-2-(2,3-difluoro-benzylsulfanyl)-6-hydroxy-pyrimidin-4-yl]-cyclopropanecarbonyl}-amino)-acetic acid ethyl ester] |
